Test results published in patent publication US20250186408A1, “TREATMENT OF PHARMACORESISTANT EPILEPSY” (Katholieke Universiteit Leuven, priority 2021, published 2025).
pEC50, pIC50: −log10 of the molar value. Converted amounts (≈) assume the structure as drawn. Where two headings read alike, the source gives them in different places.

Tests used:
CHRM3 = CHRM3 (Homo sapiens, UniProt P20309); experiment: Calcium Flux CHRM3 Agonist; conditions: for Emax: read-out: Max response
Procedure: (§1) In vitro pharmacological profiling of compounds was done against 78 functional assays for 47 common off-targets (30) by Eurofins DiscoverX Corporation (Fremont, CA, USA) using their SAFETYscan E/IC50 ELECT service (Cat Ref 87-1003DR, Safety47 Panel Dose Response). […] Compounds were tested in a range of 10 concentrations, following a 3-fold serial dilution, starting from 10 μM. The assays were performed utilizing the PathHunter enzyme fragment complementation (EFC) technology, FLIPR®-based cellular screening assays, and KINOMEscan kinase binding assays.
(§2) Prior to testing, cells (10,000 cells/well) were expanded from freezer stocks and seeded into a total volume of 50 μL into black walled, clear-bottom, Poly-D-lysine coated 384-well microplates and incubated at 37° C. […] Assays were performed in 1× dye loading buffer consisting of 1× Dye (DiscoverX, Calcium No Wash^PLUS kit, Catalog No. 90-0091), 1× Additive A and 2.5 mM Probenecid in HBSS/20 mM HEPES. Probenecid was prepared fresh. Prior to testing, media was aspirated from cells and replaced with 25 μL dye loading buffer. Cells were incubated for 45 min at 37° C. and then 20 min at RT. For agonist determination, 25 μL of 2× compound in HBSS/20 mM HEPES was added using a FLIPR Tetra (MDS). For antagonist determination, cells were pre-incubated with sample followed by agonist challenge at the EC80 concentration. 25 μL of 2× sample was added and cells were incubated for 30 min at RT in the dark to equilibrate plate temperature. After incubation, antagonist determination was initiated by addition of 25 μL of 1× compound with 3×EC80 agonist using FLIPR. For both agonist and antagonist formats, activity was measure on a FLIPR Tetra (MDS). Calcium mobilization was monitored for 2 min with a 5 sec baseline read.
(§3) FLIPR read—Area under the curve, was calculated for the entire 2 min read. Compound activity was analysed using CBIS data analysis suite (ChemInnovation, CA).

HTR1A = target: T1, HTR1A (Homo sapiens, UniProt P08908); experiment: cAMP HTR1A Antagonist; conditions: for Emax: read-out: Max response
T1 sequence (P08908 1-422): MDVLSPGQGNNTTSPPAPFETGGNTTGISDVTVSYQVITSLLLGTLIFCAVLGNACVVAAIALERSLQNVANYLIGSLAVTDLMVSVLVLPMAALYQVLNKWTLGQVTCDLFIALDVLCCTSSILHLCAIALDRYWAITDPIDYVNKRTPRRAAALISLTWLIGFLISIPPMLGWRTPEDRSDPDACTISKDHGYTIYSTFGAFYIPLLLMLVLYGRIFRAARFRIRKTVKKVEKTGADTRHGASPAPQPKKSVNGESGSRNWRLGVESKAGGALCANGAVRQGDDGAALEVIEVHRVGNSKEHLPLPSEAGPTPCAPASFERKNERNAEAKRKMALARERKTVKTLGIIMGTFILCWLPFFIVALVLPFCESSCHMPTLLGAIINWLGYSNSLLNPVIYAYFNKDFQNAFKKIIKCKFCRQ
Procedure: (§4) In vitro pharmacological profiling of compounds was done against 78 functional assays for 47 common off-targets (30) by Eurofins DiscoverX Corporation (Fremont, CA, USA) using their SAFETYscan E/IC50 ELECT service (Cat Ref 87-1003DR, Safety47 Panel Dose Response). […] Compounds were tested in a range of 10 concentrations, following a 3-fold serial dilution, starting from 10 μM.
(§5) cAMP Hunter cell lines were expanded from freezer stocks. Prior to testing, cells were seeded in a total volume of 20 μL into white walled 384-well microplates and incubated at 37° C. cAMP modulation was determined using the DiscoverX HitHunter cAMP XS+ assay. For Gs agonist determination, cells were incubated with sample to induce response. For Gi agonist determination, cells were incubated with sample in the presence of EC80 forskolin to induce response. For both conditions, media was aspirated from cells and replaced with 15 μL 2:1 HBSS/10 mM HEPES:cAMP XS+ Ab reagent. Intermediate dilution of sample stocks was performed to generate 4× sample in assay buffer (containing 4×EC80 forskolin in the case of antagonist determination). 5 μL of 4× sample was added to cells and incubated at 37° C. or room temperature (RT) for 30 or 60 min. Final assay vehicle concentration was 1%. For antagonist determination, cells were pre-incubated with sample followed by agonist challenge at the EC80 concentration. Media was aspirated from cells and replaced with 10 μL 1:1 HBSS/HEPES:cAMP XS+ Ab reagent. 5 μL of 4× compound was added to the cells and incubated at 37° C. or RT for 30 min. 5 μL of 4×EC80 agonist was added to the cells and incubated at 37° C. or RT for 30 or 60 min. For Gi coupled GPCRs, EC80 forskolin was included. […] Microplates were read following signal generation with a PerkinElmer Envision™ instrument for chemiluminescent signal detection. Compound activity was analyzed using CBIS data analysis suite (ChemInnovation, CA).

OPRK1 = OPRK1 (Homo sapiens, UniProt P41145); experiment: cAMP OPRK1 Agonist; conditions: for Emax: read-out: Max response
Sequence of OPRK1 (P41145 whole entry): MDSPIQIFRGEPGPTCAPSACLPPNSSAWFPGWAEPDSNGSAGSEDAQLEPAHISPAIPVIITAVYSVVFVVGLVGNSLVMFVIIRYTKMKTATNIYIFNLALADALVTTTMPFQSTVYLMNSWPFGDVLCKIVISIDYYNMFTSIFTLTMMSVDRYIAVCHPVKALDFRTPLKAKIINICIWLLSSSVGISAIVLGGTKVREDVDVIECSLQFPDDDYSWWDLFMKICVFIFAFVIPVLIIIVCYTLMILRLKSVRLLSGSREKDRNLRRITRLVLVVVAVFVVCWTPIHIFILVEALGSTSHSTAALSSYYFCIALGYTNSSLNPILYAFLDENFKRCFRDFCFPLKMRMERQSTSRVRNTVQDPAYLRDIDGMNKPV
Procedure: as §4, §5

male NMRI mice = experiment: Mouse 6-Hz (44 mA) psychomotor seizure model; format: in vivo; conditions: 30 min before stimulation; for dose-response relationship (in words): i.p.
Procedure: The antiseizure activity of compounds was investigated in the mouse 6-Hz (44 mA) psychomotor seizure model as described before (27). […] Seizure behaviour was video recorded and seizure durations were determined by blinded video analysis by experienced researchers, familiar with the different seizure characteristics. Data are expressed as mean±SD.
The 6-Hz 44 mA model is an acute model of pharmacoresistant focal impaired awareness seizures, previously referred to as complex partial or psychomotor seizures that are induced by a low frequency, long duration corneal electrical stimulation (6 Hz, 0.2 ms rectangular pulse width, 3 s duration, 44 mA). Seizures are typically characterized by a clonic phase and stereotypical automatic behaviours like stun, forelimb clonus, Straub tail and vibrissae twitching.

OPRD1 = OPRD1 (Homo sapiens, UniProt P41143); experiment: cAMP OPRD1 Antagonist; conditions: for Emax: read-out: Max response
Sequence of OPRD1 (P41143 whole entry): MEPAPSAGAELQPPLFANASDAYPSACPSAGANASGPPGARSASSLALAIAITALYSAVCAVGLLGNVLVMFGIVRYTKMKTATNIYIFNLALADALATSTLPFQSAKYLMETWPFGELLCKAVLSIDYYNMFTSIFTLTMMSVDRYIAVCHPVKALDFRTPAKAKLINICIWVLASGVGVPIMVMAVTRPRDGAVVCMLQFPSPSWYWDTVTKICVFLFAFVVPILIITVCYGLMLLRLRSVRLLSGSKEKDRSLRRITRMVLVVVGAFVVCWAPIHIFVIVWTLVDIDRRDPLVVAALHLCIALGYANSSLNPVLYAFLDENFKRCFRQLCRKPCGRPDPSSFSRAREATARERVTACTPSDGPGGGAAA
Procedure: as §4, §5

ADRB2 = ADRB2 (Homo sapiens, UniProt P07550); experiment: cAMP ADRB2 Agonist; format: cell-based; conditions: for Emax: read-out: Max response
Sequence of ADRB2 (P07550 whole entry): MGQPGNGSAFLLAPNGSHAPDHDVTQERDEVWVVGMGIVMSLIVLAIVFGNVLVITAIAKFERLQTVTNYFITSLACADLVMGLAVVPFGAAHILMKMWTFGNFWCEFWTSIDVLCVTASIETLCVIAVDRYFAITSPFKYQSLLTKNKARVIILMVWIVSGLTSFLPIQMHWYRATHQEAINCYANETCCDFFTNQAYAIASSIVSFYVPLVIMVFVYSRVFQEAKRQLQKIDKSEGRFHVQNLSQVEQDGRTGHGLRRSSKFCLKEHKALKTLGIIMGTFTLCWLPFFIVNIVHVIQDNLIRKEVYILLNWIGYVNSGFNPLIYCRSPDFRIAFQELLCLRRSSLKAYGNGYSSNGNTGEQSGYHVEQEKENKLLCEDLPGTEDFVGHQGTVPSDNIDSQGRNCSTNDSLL
Procedure: cAMP Hunter cell lines were expanded from freezer stocks. […] For Gi agonist determination, cells were incubated with sample in the presence of EC80 forskolin to induce response. For both conditions, media was aspirated from cells and replaced with 15 μL 2:1 HBSS/10 mM HEPES:cAMP XS+ Ab reagent. […] 5 μL of 4× sample was added to cells and incubated at 37° C. or room temperature (RT) for 30 or 60 min. Final assay vehicle concentration was 1%. […] Media was aspirated from cells and replaced with 10 μL 1:1 HBSS/HEPES:cAMP XS+ Ab reagent. […] For Gi coupled GPCRs, EC80 forskolin was included. […] Compound activity was analyzed using CBIS data analysis suite (ChemInnovation, CA).

HTR2A = HTR2A (Homo sapiens, UniProt P28223); experiment: Calcium Flux HTR2A Antagonist; conditions: for Emax: read-out: Max response
Sequence of HTR2A (P28223 whole entry): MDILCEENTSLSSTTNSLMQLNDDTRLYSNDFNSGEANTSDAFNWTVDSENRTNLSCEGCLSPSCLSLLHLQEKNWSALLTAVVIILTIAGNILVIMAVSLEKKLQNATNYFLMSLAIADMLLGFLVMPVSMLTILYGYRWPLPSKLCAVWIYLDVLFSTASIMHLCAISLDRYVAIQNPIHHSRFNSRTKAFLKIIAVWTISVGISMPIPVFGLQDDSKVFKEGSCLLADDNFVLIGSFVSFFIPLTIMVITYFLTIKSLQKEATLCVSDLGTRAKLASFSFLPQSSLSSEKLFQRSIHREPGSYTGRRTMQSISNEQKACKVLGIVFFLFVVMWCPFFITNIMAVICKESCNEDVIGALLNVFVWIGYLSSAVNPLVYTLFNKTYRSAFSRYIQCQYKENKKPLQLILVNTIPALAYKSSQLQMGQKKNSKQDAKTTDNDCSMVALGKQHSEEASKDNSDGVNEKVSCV
Procedure: as §1, §2, §3

COX1 = target: T2, COX1 (Homo sapiens, UniProt P23219); experiment: Enzymatic COX1 Inhibitor; format: biochemical; conditions: for pIC50: read-out: RC50, result type IC50; for Emax: read-out: Max response
T2 construct: purchased BPS Bioscience
T2 sequence (P23219 24-599): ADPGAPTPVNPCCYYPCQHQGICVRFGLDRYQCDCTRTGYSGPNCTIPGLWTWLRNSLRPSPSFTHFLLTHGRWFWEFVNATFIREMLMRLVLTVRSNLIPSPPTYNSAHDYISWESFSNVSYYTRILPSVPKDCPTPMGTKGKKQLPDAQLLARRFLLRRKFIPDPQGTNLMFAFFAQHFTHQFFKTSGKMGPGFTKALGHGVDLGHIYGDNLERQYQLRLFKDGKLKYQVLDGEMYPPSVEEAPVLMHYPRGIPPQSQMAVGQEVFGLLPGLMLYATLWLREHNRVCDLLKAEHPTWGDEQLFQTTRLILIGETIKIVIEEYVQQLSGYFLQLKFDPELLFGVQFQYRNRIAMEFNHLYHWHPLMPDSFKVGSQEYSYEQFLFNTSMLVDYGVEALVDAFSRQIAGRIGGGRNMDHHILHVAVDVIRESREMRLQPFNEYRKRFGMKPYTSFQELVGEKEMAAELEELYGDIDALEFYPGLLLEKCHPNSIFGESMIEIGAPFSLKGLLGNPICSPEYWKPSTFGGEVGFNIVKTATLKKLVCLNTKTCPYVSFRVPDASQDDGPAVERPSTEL
Procedure: Enzyme preparations were sourced from various vendors-AChE (R&D Systems), COX1 and COX2 (BPS Bioscience), MAOA (Sigma), PDE3A and PDE4D2 (Signal Chem). AChE: enzyme and test compound were pre-incubated for 15 min at RT before substrate addition. Acetylthiocholine and DTNB were added and incubated at RT for 30 min. Signal was detected by measuring absorbance at 405 nm. COX1 and COX2: enzyme stocks were diluted in assay buffer (40 mM Tris-HCl, 1×PBS, 0.5 mM Phenol, 0.01% Tween 20 and 10 nM Hematin) and allowed to equilibrate with compounds at RT for 30 min (binding incubation). Arachidonic acid (1.7 μM) and Ampliflu Red (2.5 μM) were prepared and dispended into a reaction plate. Plates were read immediately on a fluorimeter with the emission detection at 590 nm and excitation wavelength 544 nm. MAOA: enzyme and test compound were pre-incubated for 15 min at 37° C. before substrate addition. The reaction was initiated by addition of kynuramine and incubated at 37° C. for 30 min. The reaction was terminated by addition of NaOH. The amount of 4-hydroquinoline formed was determined through spectrofluorometric readout with the emission detection at 380 nm and excitation wavelength 310 nm. PDE3A and PDE4D2: enzyme and test compound were pre-incubated for 15 min at RT before substrate addition. cAMP substrate (at a concentration equal to EC80) was added and incubated at RT for 30 min. Enzyme reaction was terminated by addition of 9 mM IBMX. Signal was detected using the HitHunter® cAMP detection kit. Microplates were transferred to a PerkinElmer Envision™ instrument and read out as described for each assay. […] For enzyme activity assays, percentage inhibition was calculated using the following equation: […]

Aqueous solubility = format: physicochemical
Description: In vitro ADME profiling of compounds was done by Eurofins Panlabs Inc (St Charles, MO, USA) using their ADME-Tox service (Cat Ref P375, Tier 1 ADME Panel). […] (28). The atom-based log P calculation method, called OsirisP, uses as an increment system and adds contributions of every atom based on its atom type. The prediction engine distinguishes a total of 368 atom types and was optimized using a training set of more than 5000 molecules with experimentally determined log P values. The free prediction engine has proven to outperform many alternative calculation methods (29).
SGF, SIF and PBS buffers were prepared as follows: 34.2 mM NaCl, 84.7 mM HCl, 3.2 g/L pepsin (pH 2) for SGF, 50 mM KH2PO4, 38 mM NaOH, 10 g/L pancreatin (pH 7.5) for SIF and 137 mM NaCl, 2.7 mM KCl, 8.1 mM Na2HPO4 and 1.5 mM KH2PO4 (pH 7.4) for PBS. Test compounds were prepared at 200 μM concentrations in the corresponding buffer from a 10 mM stock solution (final solvent concentration of 2% DMSO). Buffer samples were mixed thoroughly followed by a 24 h incubation at room temperature. Samples were centrifuged and the supernatant was used for HPLC analysis. A calibration standard of the test compound was prepared at 200 μM in methanol/water (3:2 v/v) from the stock solution on the day of the analysis. Metoprolol, rifampicin, ketoconazole, phenytoin, haloperidol, simvastatin, diethylstilbestrol and tamoxifen were included in each assay. Aqueous solubility (μM) was determined by comparing peak areas.

[1] = aqueous buffer, kinetic from dmso stock, PBS pH 7.4, tested at 200 μM, 24 h room temperature, read-out: aqueous solubility PBS (pH 7.4)
[2] = fassgf or other biorelevant, kinetic from dmso stock, simulated intestinal fluid pH 7.5, tested at 200 μM, read-out: aqueous solubility simulated intestinal fluid
[3] = kinetic from dmso stock, simulated gastric fluid pH 2, tested at 200 μM, read-out: aqueous solubility simulated gastric fluid

Sequence of CHRM3 (P20309 whole entry): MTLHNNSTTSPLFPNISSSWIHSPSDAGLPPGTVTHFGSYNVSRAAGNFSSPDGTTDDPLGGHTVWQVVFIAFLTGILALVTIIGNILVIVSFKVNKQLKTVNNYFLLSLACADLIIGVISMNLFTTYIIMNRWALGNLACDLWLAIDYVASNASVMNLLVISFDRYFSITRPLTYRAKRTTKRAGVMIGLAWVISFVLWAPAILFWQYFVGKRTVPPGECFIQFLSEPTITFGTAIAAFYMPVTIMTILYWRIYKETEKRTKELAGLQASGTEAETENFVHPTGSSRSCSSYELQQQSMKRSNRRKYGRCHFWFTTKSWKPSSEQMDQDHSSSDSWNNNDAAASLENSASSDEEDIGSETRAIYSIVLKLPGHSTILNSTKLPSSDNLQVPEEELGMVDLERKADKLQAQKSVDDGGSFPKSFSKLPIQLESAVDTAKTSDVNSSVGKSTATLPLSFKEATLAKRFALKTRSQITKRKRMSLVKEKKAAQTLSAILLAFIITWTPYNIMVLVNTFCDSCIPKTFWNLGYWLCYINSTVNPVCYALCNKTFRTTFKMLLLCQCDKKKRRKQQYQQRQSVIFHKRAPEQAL

Row | SMILES | pEC50 (CHRM3) | Emax (CHRM3) [%] | pIC50 (HTR1A) | Emax (HTR1A) [%] | pEC50 (OPRK1) | Emax (OPRK1) [%] | mean seizure duration (male NMRI mice; 30 mg/kg i.p.) [s] | mean seizure duration (male NMRI mice; 100 mg/kg i.p.) [s] | mean seizure duration (male NMRI mice; 200 mg/kg i.p.) [s] | mean seizure duration (male NMRI mice; 300 mg/kg i.p.) [s] | mean seizure duration (male NMRI mice; 600 mg/kg i.p.) [s] | dose-response relationship (in words) (male NMRI mice) | pIC50 (OPRD1) | Emax (OPRD1) [%] | pIC50 (HTR2A) | Emax (HTR2A) [%] | pIC50 (COX1; Enzymatic COX1 Inhibitor) | solubility at 24 h (Aqueous solubility; [1]) [µM] | solubility at 24 h (Aqueous solubility; [2]) [µM] | solubility at 24 h (Aqueous solubility; [3]) [µM] | further results
1 | CC(C)(C)c1ccc(C#CC(O)c2ccccc2)cc1 (racemic) [Compound 3.3, rac-3-(4-(tert-butyl)phenyl)-1-phenylprop-2-yn-1-ol] | < 5.00 | 0 | < 5.00 | 47.2 | < 5.00 | 0 | 9.5 | 7.7 | 1.1 | 0 | 1.00 | displayed a dose-response relationship | < 5.00 | 5.9 | < 5.00 | 0 | < 5.00 | 17.7 (≈ 4.68 µg/mL) | 102 (≈ 27.1 µg/mL) | 24.5 (≈ 6.48 µg/mL) | pEC50 (ADRB2): < 5.00; Emax (ADRB2): 1.9%; Emax (COX1): 9.9%
2 | Clc1cccc(C#Cc2n[nH]c3ncccc23)c1 [Compound 10.1, 3-((3-chlorophenyl)ethynyl)-1H-pyrazolo[3,4-b]pyridine] | < 5.00 | 2.2 | < 5.00 | 0 | < 5.00 | 5.4 | 5.5 | 6.0 | 8.5 | 3.0 | 0.8 | displayed a dose-response relationship | < 5.00 | 0 | < 5.00 | 0 | < 5.00 | < 0.1 | 26.7 (≈ 6.77 µg/mL) | 26.7 (≈ 6.77 µg/mL) | mean seizure duration (male NMRI mice; 10 mg/kg i.p.): 6.2 s; mean seizure duration (male NMRI mice; 400 mg/kg i.p.): 1.2 s; Emax (ADRB2; cAMP ADRB2 Agonist): 0.3%; pEC50 (ADRB2; cAMP ADRB2 Agonist, read-out: RC50, result type EC50): < 5.00; Emax (COX1; Enzymatic COX1 Inhibitor): 0%; solubility at 24 h (Aqueous solubility; PBS pH 7.4, tested at 200 μM, 24 h room temperature, read-out: aqueous solubility PBS (pH 7.4)): <0.1 µM
